Emax, EC50 and pEC50 data for 38 compounds are collected here from ChEMBL document CHEMBL3351707, “Discovery and SAR of muscarinic receptor subtype 1 (M1) allosteric activators from a molecular libraries high throughput screen. Part 1: 2,5-dibenzyl-2H-pyrazolo[4,3-c]quinolin-3(5H)-ones as positive allosteric modulators” (Bioorg Med Chem Lett, 2015).

Type in all cases: functional, cell-based
Assay [1] has as its target T1, Muscarinic acetylcholine receptor M1 (Homo sapiens) (UniProt P11229).
T1 sequence (whole entry): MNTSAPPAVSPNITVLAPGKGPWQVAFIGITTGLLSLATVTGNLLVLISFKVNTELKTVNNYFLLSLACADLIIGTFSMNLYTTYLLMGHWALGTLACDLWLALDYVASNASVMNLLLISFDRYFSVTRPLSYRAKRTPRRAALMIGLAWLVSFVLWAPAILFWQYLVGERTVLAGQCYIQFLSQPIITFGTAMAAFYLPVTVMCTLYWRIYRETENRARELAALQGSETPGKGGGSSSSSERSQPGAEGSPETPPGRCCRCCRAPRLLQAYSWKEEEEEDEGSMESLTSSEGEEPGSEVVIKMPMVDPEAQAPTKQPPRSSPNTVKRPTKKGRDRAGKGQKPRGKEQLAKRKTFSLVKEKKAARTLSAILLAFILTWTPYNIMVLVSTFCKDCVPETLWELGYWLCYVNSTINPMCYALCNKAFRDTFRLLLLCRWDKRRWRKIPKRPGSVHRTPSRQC
The assay is described as follows: Positive allosteric modulator activity at human muscarinic receptor subtype 1 expressed in CHO-K1 cells by calcium mobilization assay relative to acetylcholine. For orientation: Calcium flux is commonly read through the fluorescence of an indicator in the cells.

Assay [2] addresses T2, Muscarinic acetylcholine receptor M1 (Homo sapiens, UniProt P11229).
T2 sequence (P11229 whole entry): T1 sequence (whole entry)
Nature of the assay: (§1) Positive allosteric modulator activity at human muscarinic receptor subtype 1 expressed in CHO-K1 cells by calcium mobilization assay.

For assay [3], the target named is T1, Muscarinic acetylcholine receptor M1 (Homo sapiens). The assay is described as §1.
Assay [4] has the same target. Nature of the assay: Positive allosteric modulator activity at human muscarinic receptor subtype 1 expressed in CHO-K1 cells at 30 uM by calcium mobilization assay relative to acetylcholine.

Molecules are shown by their SMILES. Activity calls are given as the source filed them. The calls are words filed in the database; no cut-off is given here. Where only a bound is given, the exact number is not on record here.

One may read the Emax as the greatest response seen or fitted, relative to the assay's reference. The EC50 is the concentration that produces a half-maximal response. For the compound `Cc1ccc(Cn2nc3c4ccccc4n(Cc4ccccc4F)cc-3c2=O)c(C)c1`, in assay [1], the Emax was 46%. The EC50 in assay [2] (read-out: EC50) was determined as 656 nM.
The corresponding values for `Cc1ccc(Cn2nc3c4ccccc4n(Cc4ccncc4)cc-3c2=O)c(C)c1` are 82% and 1550 nM.
Turning to `Cc1ccc(Cn2nc3c4ccccc4n(Cc4ccc(F)cc4)cc-3c2=O)c(C)c1`, the maximum response (Emax) in assay [1] amounted to 47%. For the same compound, the concentration giving a half-maximal response (EC50) in assay [2] (read-out: EC50) came out at 2020 nM.
Consider `Cc1ccc(Cn2nc3c4ccccc4n(Cc4ccccc4)cc-3c2=O)cc1`, for which, in assay [3], the pEC50 result was “inactive”. For the same compound, in assay [2] (cho-k1), the EC50 result is recorded as “Not Active”.
Regarding `Cc1ccc(Cn2nc3c4ccccc4n(Cc4ccccc4C)cc-3c2=O)c(C)c1`, the Emax entry in assay [1] is “inactive”. Moreover, in assay [3], the pEC50 entry is “inactive”. Moreover, the EC50 result in assay [2] (cho-k1) is listed as “Not Active”.
Consider `Cc1ccc(Cn2nc3c4ccccc4n(Cc4ccc(-c5cnn(C)c5)cc4F)cc-3c2=O)c(C)c1`, for which the Emax in assay [1] was 74%. Besides, the EC50 in assay [2] (read-out: EC50) came out at 1940 nM.
In the case of `O=c1c2cn(Cc3ccc(-n4cccn4)cc3)c3ccccc3c-2nn1Cc1ccccc1`, the concentration for a half-maximal effect (EC50) in assay [2] (read-out: EC50) is greater than 10000 nM. Further, the Emax in assay [4] stood at 50%.
Consider `O=c1c2c[nH]c3ccccc3c-2nn1[C@@H]1CCCC[C@H]1O`, for which, in assay [3], the pEC50 result was “inactive”. In addition, the EC50 entry in assay [2] (cho-k1) is recorded as “Not Active”.
For the compound `O=C1C(=O)N(Cc2ccccc2)c2ccccc21`, the Emax in assay [1] came to 34%.
Turning to `Cc1ccc(Cn2cc3c(=O)n(Cc4ccc(C)cc4C)nc-3c3ccccc32)cc1`, the Emax result in assay [1] is “inactive”. Further, in assay [3], the pEC50 entry was “inactive”. In assay [2] (cho-k1), the half-maximal effective concentration (EC50) entry was “Not Active”.
With `O=c1c2cn(Cc3ccccc3)c3ccccc3c-2nn1Cc1ccccn1`, the 50% effective concentration (EC50) in assay [2] (read-out: EC50) is greater than 10000 nM. Further, the maximum response (Emax) in assay [4] stood at 59%.
For the compound `Cc1ccc(Cn2nc3c4ccccc4n(C)cc-3c2=O)c(C)c1`, the Emax result in assay [1] is “inactive”. Besides, in assay [3], the pEC50 result was “inactive”. For the same compound, the EC50 result in assay [2] (cho-k1) was “Not Active”.
On to `O=c1c2cn(Cc3ccccc3)c3ccccc3c-2nn1Cc1ccc(F)cc1`, for which the pEC50 result in assay [3] is “inactive”. Further, the EC50 entry in assay [2] (cho-k1) was “Not Active”.
The corresponding values for `O=c1c2cn(Cc3ccccc3)c3ccccc3c-2nn1Cc1cccc(F)c1` are “inactive” and “Not Active”.
Take `Cc1ccc(Cn2nc3c4ccccc4n(Cc4cccc(F)c4)cc-3c2=O)c(C)c1`: the Emax in assay [1] was found to be 31%. For the same compound, the EC50 in assay [2] (read-out: EC50) is 1420 nM.
As to `Cc1ccc(C)c(CN2C(=O)C(=O)c3ccccc32)c1`, the EC50 result in assay [2] (cho-k1) was “Not Active”.
Take `Cn1nc2c3ccccc3n(Cc3ccccc3)cc-2c1=O`: the concentration for a half-maximal effect (EC50) in assay [2] (read-out: EC50) was greater than 10000 nM. Also, the Emax in assay [4] was 48%.
For the compound `O=c1c2cn(Cc3ccccc3)c3ccccc3c-2nn1Cc1ccccc1`, in assay [3], the pEC50 result is “inactive”. Besides, the EC50 entry in assay [2] (cho-k1) was “Not Active”.
On to `Cc1cc(NC(=O)CS(=O)(=O)c2cn(Cc3ccc(-c4cnn(C)c4)nc3)c3cc(F)cc(F)c23)no1`, for which the EC50 in assay [2] (read-out: EC50) came out at 845 nM.
In the case of `O=c1c2cn(Cc3ccccc3)c3ccccc3c-2nn1Cc1ccccc1F`, in assay [1], the Emax stood at 36%. In assay [2] (read-out: EC50), the EC50 was found to be 1010 nM.
The corresponding values for `Cc1ccc(Cn2nc3c4ccccc4n(Cc4cccnc4)cc-3c2=O)c(C)c1` are 75% and 3660 nM.
Regarding `Cc1cccc(Cn2nc3c4ccccc4n(Cc4ccccc4)cc-3c2=O)c1`, the pEC50 result in assay [3] was “inactive”. Besides, the EC50 entry in assay [2] (cho-k1) is “Not Active”.
In the case of `Cc1ccc(C)c(Cn2nc3c4ccccc4n(Cc4ccccc4)cc-3c2=O)c1`, in assay [1], the Emax was found to be 40%. Also, the EC50 in assay [2] (read-out: EC50) was 473 nM.
Regarding `O=c1c2c[nH]c3ccccc3c-2nn1Cc1ccc(-n2cccn2)cc1`, in assay [3], the pEC50 entry is “inactive”. Further, the half-maximal effective concentration (EC50) result in assay [2] (cho-k1) is on record as “Not Active”.
Take `Cc1ccc(Cn2nc3c4ccccc4n(Cc4ccc(-n5cccn5)cc4)cc-3c2=O)c(C)c1`: the Emax in assay [1] was 80%. The 50% effective concentration (EC50) in assay [2] (read-out: EC50) is 1150 nM.
As for `O=c1c2cn(Cc3ccccc3)c3ccccc3c-2nn1Cc1cccnc1`, in assay [1], the maximal response (Emax) is 65%. The EC50 in assay [2] (read-out: EC50) was determined as 6310 nM.
`Cc1ccc(C)c(Cn2nc3c4ccccc4[nH]cc-3c2=O)c1`: the EC50 in assay [2] (read-out: EC50) is greater than 30000 nM.
Take `Cc1cccc(Cn2cc3c(=O)n(Cc4ccc(C)cc4C)nc-3c3ccccc32)c1`: in assay [1], the Emax entry is “inactive”. Besides, the pEC50 entry in assay [3] is “inactive”. The concentration giving a half-maximal response (EC50) result in assay [2] (cho-k1) is reported as “Not Active”.
For `O=c1c2cn(Cc3ccccc3)c3ccccc3c-2nn1Cc1ccncc1`, in assay [2] (read-out: EC50), the EC50 is greater than 10000 nM. Moreover, in assay [4], the maximum response (Emax) turned out to be 54%.
For `Cn1cc(-c2ccc(Cn3cc4c(=O)[nH]nc-4c4ccccc43)c(F)c2)cn1`, in assay [1], the maximal effect (Emax) is 89%. Further, the half-maximal effective concentration (EC50) in assay [2] (read-out: EC50) amounted to 600 nM.
For `O=c1[nH]nc2c3ccccc3n(Cc3ccc(-n4cccn4)cc3)cc1-2` the same measures were 83% and 1200 nM.
As for `O=C1C(=O)N(Cc2ccc(-n3cccn3)cc2)c2ccccc21`, in assay [1], the Emax was 61%.
With `COc1ccc(Cn2cc3c(=O)n(Cc4ccc(C)cc4C)nc-3c3ccccc32)cc1`, the Emax in assay [1] is 39%. Besides, the concentration giving a half-maximal response (EC50) in assay [2] (read-out: EC50) came out at 821 nM.
As to `Cn1nc2c3ccccc3n(Cc3ccc(-n4cccn4)cc3)cc-2c1=O`, the maximal response (Emax) in assay [1] turned out to be 88%. For the same compound, the EC50 in assay [2] (read-out: EC50) was 2430 nM.
The corresponding values for `Cc1ccc(Cn2nc3c4ccccc4n(Cc4ccccn4)cc-3c2=O)c(C)c1` are 83% and 3790 nM.
Take `COc1ccc(Cn2cc3c(=O)n(Cc4ccc(C)cc4C)nc-3c3ccccc32)c(F)c1`: the Emax result in assay [1] is “inactive”. The pEC50 result in assay [3] was “inactive”. The concentration giving a half-maximal response (EC50) entry in assay [2] (cho-k1) is “Not Active”.
For `Cc1ccccc1Cn1nc2c3ccccc3n(Cc3ccccc3)cc-2c1=O`, the Emax in assay [1] worked out at 47%. Moreover, the EC50 in assay [2] (read-out: EC50) turned out to be 783 nM.
As to `Cn1cc(-c2ccc(Cn3nc4c5ccccc5[nH]cc-4c3=O)cc2)cn1`, the pEC50 entry in assay [3] is “inactive”. For the same compound, the concentration for a half-maximal effect (EC50) entry in assay [2] (cho-k1) is on record as “Not Active”.
